Results reported in ChEMBL document CHEMBL5385952, “Facile Synthesis and First Antifungal Exploration of Tetracyclic Meroterpenoids: (+)-Aureol, (-)-Pelorol, and Its Analogs” (J Nat Prod, 2024).

How the values were obtained:
[1] = tested on: Phytophthora capsici; assay: Antifungal activity against Phytophthora capsici at 150 uM; type: functional
[2] = tested on: Sclerotinia sclerotiorum; assay: Antifungal activity against Sclerotinia sclerotiorum at 150 uM; type: functional
[3] = tested on: Botrytis cinerea; assay: Antifungal activity against Botrytis cinerea at 150 uM; type: functional
[4] = tested on: Fusarium graminearum; assay: Antifungal activity against Fusarium graminearum at 150 uM; type: functional
[5] = tested on: Rhizoctonia solani; assay: Antifungal activity against Rhizoctonia solani at 150 uM; type: functional
[6] = tested on: Rhizoctonia solani; assay: Antifungal activity against Rhizoctonia solani
[7] = tested on: Sclerotinia sclerotiorum; assay: Antifungal activity against Sclerotinia sclerotiorum

Compound | Activity [1] [%] | Activity [2] [%] | Activity [3] [%] | Activity [4] [%] | Activity [5] [%] | EC50 [6] [µM] | EC50 [7] [µM]
CC1(C)CCC[C@]2(C)[C@H]3Cc4cc(O)cc(O)c4[C@]3(C)CC[C@@H]12 | 65 | 43 | 39 | 60 | 68 | – | –
COC(=O)c1cc(O)c(O)c2c1[C@]1(C)CC[C@H]3C(C)(C)CCC[C@]3(C)[C@H]1C2 [PELOROL] | 40 | 75 | 52 | 62 | 87 | 7.7 | 49
CC1(C)CCC[C@]2(C)[C@H]3Cc4c(cc(C=O)c(O)c4O)[C@]3(C)CC[C@@H]12 | 3 | 34 | 15 | 37 | 3 | – | –
Cc1cc(O)cc2c1[C@]1(C)CC[C@H]3C(C)(C)CCC[C@]3(C)[C@H]1C2 | 5 | 11 | 7 | 11 | 16 | – | –
CC1(C)CCC[C@]2(C)[C@H]3Cc4cc(O)ccc4[C@]3(C)CC[C@@H]12 | 33 | 51 | 34 | 37 | 62 | 34 | > 150
CCc1cc(O)c(O)c2c1[C@]1(C)CC[C@H]3C(C)(C)CCC[C@]3(C)[C@H]1C2 | 32 | 37 | 37 | 53 | 41 | – | –
CC1(C)CCC[C@]2(C)[C@H]3Cc4c(O)c(O)cc(C(=O)O)c4[C@]3(C)CC[C@@H]12 | 55 | 76 | 56 | 51 | 73 | 18 | 26
CC1(C)CCC[C@]2(C)[C@H]3Cc4c(ccc(O)c4O)[C@]3(C)CC[C@@H]12 | 60 | 63 | 43 | 71 | 62 | – | –
Cc1cc2c(cc1O)C[C@@H]1[C@@]3(C)CCCC(C)(C)[C@@H]3CC[C@@]21C | 9 | 31 | 24 | 32 | 58 | – | –
CC1(C)CCC[C@]2(C)[C@H]3Cc4cc(O)ccc4O[C@]3(C)CC[C@@H]12 | – | – | – | – | – | 16 | 29
C[C@H]1CC[C@H]2C(C)(C)CCC[C@]23Oc2ccc(O)cc2C[C@]13C [AUREOL] | – | – | – | – | – | 6.9 | 19
Cc1cc(O)c(O)c2c1[C@]1(C)CC[C@H]3C(C)(C)CCC[C@]3(C)[C@H]1C2 | 59 | 49 | 70 | 42 | 50 | – | –
CC1(C)CCC[C@]2(C)[C@H]3Cc4c(O)c(O)cc(C=O)c4[C@]3(C)CC[C@@H]12 | 29 | 28 | 33 | 55 | 43 | – | –
